*1 amine or outer side, *2 acyl side, *3 side chain or, on linkers, in order; H or OH if unused. Where a SMILES comes first, the peptide text is derived from it. Bridges are numbered along the chain shown (N, C = ends). Side-chain parts run from the residue outwards. [ ]: non-standard residue; d: D form. The star is where a group is joined. ξ: configuration not given here. X18 = O=C(O)CCCCCCCCCCCCCCCCC(=O)N[C@@H](CCC(=O)NCCOCCOCCOCCOCCOCOCCOCCOCCOCCOCCOCCOCCC(=O)*)C(=O)O; Me3N+CH2CH2(OCH2CH2)4CO = C[N+](C)(C)CCOCCOCCOCCOCCC(=O)*; Trp(7-Me) = Cc1cccc2c(C[C@H](N)C(=O)O)c[nH]c12; C20 diacid = O=C(O)CCCCCCCCCCCCCCCCCCC(=O)*; Abu(4-yl) = O=C([C@H](CC[*:3])N[*:1])[*:2]; C18 diacid = O=C(O)CCCCCCCCCCCCCCCCC(=O)*; γGlu = O=C(O)[C@H](CCC(=O)[*:2])N[*:1]; 2Nal = N[C@@H](Cc1ccc2ccccc2c1)C(=O)O; AEF = NCCOc1ccc(C[C@H](N)C(=O)O)cc1; ξAEF = NCCOc1ccc(CC(N)C(=O)O)cc1; 3Pal = N[C@@H](Cc1cccnc1)C(=O)O; aThr = C[C@H](O)[C@H](N)C(=O)O; NMeK = CN[C@@H](CCCCN)C(=O)O; Pen = CC(C)(S)[C@H](N)C(=O)O; Lauroyl = CCCCCCCCCCCC(=O)*; αMeC = C[C@](N)(CS)C(=O)O; ξR = N=C(N)NCCCC(N)C(=O)O; Thp = NC1(C(=O)O)CCOCC1; Abu = CC[C@H](N)C(=O)O; AEEA = NCCOCCOCC(=O)O; Sar = CNCC(=O)O
Experiments:
IL-23R = target: T1, IL-23R (Homo sapiens, UniProt Q5VWK5); assay: IL23R Reporter Assay; format: cell-based; details: HEK293 cells containing IL-23R, IL-12Rβ1 and STAT-inducible firefly luciferase reporter; 10 ng/mL IL-23 (EC90); 5 h
T1 construct: HEK293 cells containing IL-23R, IL-12Rβ1 and a firefly luciferase reporter gene driven by a STAT-inducible promoter (Promega); host or cells: HEK293
T1 sequence (Q5VWK5 24-629): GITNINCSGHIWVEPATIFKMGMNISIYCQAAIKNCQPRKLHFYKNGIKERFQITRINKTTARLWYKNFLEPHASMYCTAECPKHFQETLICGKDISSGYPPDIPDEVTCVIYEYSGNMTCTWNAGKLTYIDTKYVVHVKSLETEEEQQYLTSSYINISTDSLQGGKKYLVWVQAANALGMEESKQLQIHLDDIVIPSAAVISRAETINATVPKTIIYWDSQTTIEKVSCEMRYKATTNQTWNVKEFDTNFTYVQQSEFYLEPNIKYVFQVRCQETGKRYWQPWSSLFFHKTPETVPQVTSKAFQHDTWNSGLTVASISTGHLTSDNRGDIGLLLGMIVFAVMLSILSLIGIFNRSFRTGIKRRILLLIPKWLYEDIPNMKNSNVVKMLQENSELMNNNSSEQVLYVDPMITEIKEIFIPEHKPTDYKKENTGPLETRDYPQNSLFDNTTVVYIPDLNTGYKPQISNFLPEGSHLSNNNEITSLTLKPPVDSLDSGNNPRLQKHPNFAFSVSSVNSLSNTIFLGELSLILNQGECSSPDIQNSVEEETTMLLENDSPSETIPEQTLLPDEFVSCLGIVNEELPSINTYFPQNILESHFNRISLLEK
In short: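 IC50 values were fitted with a 4-parameter Hill equation to luciferase signal, scaled between IL-23-only wells (0% inhibition) and 30 μM reference inhibitor (100%). The readout was a STAT-inducible reporter in IL-23R/IL-12Rβ1 HEK293 cells, stimulated with added 10 ng/mL IL-23 (EC90) for 5 h at 37° C and developed with BioGlo.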

[1] = tested on: IL-23-stimulated phosphorylated STAT3 in peripheral blood mononuclear cells (PBMCs); assay: PBMC pSTAT3 Assay; format: cell-based; details: PBMCs from healthy donors; 30 min preincubation with peptide; IL-23 5 ng/mL for 30 min; phospho-STAT3 by MSD
In short: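 Phospho-STAT3 quantified by Meso Scale assay in lysates of PBMCs exposed to IL-23 (5 ng/mL, 30 min, 37 °C) after 30 min peptide pretreatment. Cells were cryopreserved donor PBMCs activated 4 days with anti-CD3 plus IL-1β (100 ng/mL) and starved ~4 h; IC50 reported.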

Row | IC50 (IL-23R) | SMILES | IC50 [1]
1 | 50 to 500 nM | CC[C@@H]1NC(=O)[C@H](Cc2c[nH]c3c(C)cccc23)NC(=O)[C@H]([C@@H](C)O)NC(=O)[C@H](CC(=O)N(C)C)NC(=O)[C@@H](NC(=O)CCOCCOCCOCCOCC[N+](C)(C)C)C(C)(C)SSC(C)(C)[C@@H](C(=O)NC(Cc2ccc(OCCN)cc2)C(=O)N[C@@H](Cc2ccc3ccccc3c2)C(=O)NC2(C(=O)N[C@@H](CCC(=O)O)C(=O)N[C@@H](CC(N)=O)C(=O)N[C@@H](Cc3cccnc3)C(=O)N(C)[C@@H](CCCCNC(=O)COCCOCCNC(=O)COCCOCCNC(=O)CC[C@H](NC(=O)CCCCCCCCCCCCCCCCCCC(=O)O)C(=O)O)C(N)=O)CCOCC2)NC1=O (some centres unmarked) [compound 152, cPEG5aCO-Pen(3)-N(N(Me)2)-T-7MeW-Dab(NMecPEG5A)-Pen(3)-AEF-2Nal-THP-E-N-3Pya-NMeK(PEG2PEG2gEC20OH)-CONH2] ({Me3N+CH2CH2(OCH2CH2)4CO}-[Pen]D(NMe2)T[Trp(7-Me)][Abu][Pen][ξAEF][2Nal][Thp]EN[3Pal][NMeK]([AEEA-AEEA-γGlu-C20 diacid])-NH2; disulfide 1-6) | < 0.5 nM
2 | < 50 nM | CCCCCCCCCCCC(=O)N[C@@H](CCC(=O)NCCOCCOCC(=O)NCCOCCOCC(=O)NC(CCCNC(=N)N)C(=O)N[C@H]1CCSC[C@@](C)(C(=O)N[C@@H](Cc2ccc(OCCN)cc2)C(=O)N[C@@H](Cc2ccc3ccccc3c2)C(=O)NC2(C(=O)N[C@@H](CCC(=O)O)C(=O)N[C@@H](CC(N)=O)C(=O)N[C@@H](Cc3cccnc3)C(=O)N(C)CC(N)=O)CCOCC2)NC(=O)[C@H](CCCCNC(C)=O)NC(=O)[C@H](Cc2c[nH]c3ccccc23)NC(=O)[C@H]([C@H](C)O)NC(=O)[C@H](CC(N)=O)NC1=O)C(=O)O (stereo partly drawn) [compound 5, C12gEPEG2PEG2CO-r-Abu(1)-N-T-W-K(Ac)-aMeC(1)-AEF-2Nal-THP-E-N-3Pya-Sar-CONH2] ({Lauroyl-γGlu-AEEA-AEEA}-[ξR][Abu(4-yl)]N[aThr]WK(Ac)[αMeC][AEF][2Nal][Thp]EN[3Pal][Sar]-NH2; thioether 2-7) | 0.5 to 5 nM
3 | < 50 nM | CC(=O)NCCCC[C@@H]1NC(=O)[C@H](Cc2c[nH]c3c(C)cccc23)NC(=O)[C@H]([C@@H](C)O)NC(=O)[C@H](CC(N)=O)NC(=O)[C@@H](NC(=O)[C@@H](CCCNC(=N)N)NC(=O)COCCOCCNC(=O)COCCOCCNC(=O)CC[C@H](NC(=O)CCCCCCCCCCCCCCCCC(=O)O)C(=O)O)C(C)(C)SSC(C)(C)[C@@H](C(=O)N[C@@H](Cc2ccc(OCCN)cc2)C(=O)N[C@@H](Cc2ccc3ccccc3c2)C(=O)NC2(C(=O)N[C@@H](CCC(=O)O)C(=O)N[C@@H](CC(N)=O)C(=O)N[C@@H](Cc3cccnc3)C(=O)N(C)CC(N)=O)CCOCC2)NC1=O [compound 60, HOC18gEPEG2PEG2CO-r-Pen(3)-N-T-7MeW-K(Ac)-Pen(3)-AEF-2Nal-THP-E-N-3Pya-Sar-CONH2] ({C18 diacid-γGlu-AEEA-AEEA}-[dR][Pen]NT[Trp(7-Me)]K(Ac)[Pen][AEF][2Nal][Thp]EN[3Pal][Sar]-NH2; disulfide 2-7) | < 0.5 nM
4 | < 50 nM | CC(=O)NCCCC[C@@H]1NC(=O)[C@H](Cc2c[nH]c3c(C)cccc23)NC(=O)[C@H]([C@@H](C)O)NC(=O)[C@H](CCCCNC(=O)CCOCCOCCOCCOCCOCCOCCOCOCCOCCOCCOCCOCCNC(=O)CC[C@H](NC(=O)CCCCCCCCCCCCCCCCC(=O)O)C(=O)O)NC(=O)[C@@H](NC(C)=O)C(C)(C)SSC(C)(C)[C@@H](C(=O)N[C@@H](Cc2ccc(OCCN)cc2)C(=O)N[C@@H](Cc2ccc3ccccc3c2)C(=O)NC2(C(=O)N[C@@H](CCC(=O)O)C(=O)N[C@@H](CC(N)=O)C(=O)N[C@@H](Cc3cccnc3)C(=O)N(C)CC(N)=O)CCOCC2)NC1=O [compound 97, MeCO-Pen(3)-K(PEG12gEC18OH)-T-7MeW-K(Ac)-Pen(3)-AEF-2Nal-THP-E-N-3Pya-Sar-CONH2] (Ac-[Pen]K(X18)T[Trp(7-Me)]K(Ac)[Pen][AEF][2Nal][Thp]EN[3Pal][Sar]-NH2; disulfide 1-6) | < 0.5 nM

From US20260250320A1, “LIPIDATED PEPTIDE INHIBITORS OF INTERLEUKIN-23 RECEPTOR” (Janssen Pharmaceutica NV, priority 2023, published 2026)
